{"source": "patent US20210196725A1", "about": "“TREATMENT OF RELAPSED FOLLICULAR LYMPHOMA” (MEI Pharma, Inc., priority 2018, published 2021)", "key": {"[1]": {"test_system": "patients with follicular lymphoma (FL)", "assay": "Phase 1b study of Compound A35 alone or with rituximab: disease response in follicular lymphoma patients", "format": "in vivo, human", "procedure": "In an ongoing Phase 1b study, patients with relapsed B-cell malignancies are administered Compound A35 either as a single agent or in combination with the anti-CD20 antibody rituximab (Rituxan®). A total of 90 subjects have been enrolled in the study to date: • 31 subjects enrolled in a dose escalation cohort of Compound A35 administered as a single agent at a daily dose of 60, 120, and 180 mg; • 21 subjects enrolled in an ongoing expansion cohort of Compound A35 administered as a single agent at 60 mg/day, either on a daily continuous schedule (CS) only or on a daily dosing followed by a switch to an intermittent dosing schedule […] beginning in Cycle 3. • 38 subjects enrolled in a cohort of Compound A35 at 60 mg/day on a CS or IS dosing plus infusional rituximab at a dose of 375 mg/m^2 administered for a total of 8 doses in 6 months\nPatients with FL were treated with Compound A35 either alone (N=40) or in combination with the anti-CD20 antibody rituximab (N=14). Most patients in the rituximab combination cohort received Compound A35 by intermittent schedule (IS) after 2 cycles of daily dosing of Compound A35.\n(§1) Methods: Patients with ECOG ≤2, no prior PI3K therapy and progression of disease (POD) after ≥1 prior therapy were initially enrolled in a dose escalation phase (60-180 mg) then in 60 mg expansion cohorts as monotherapy or in combination with rituximab. Treatment is given in 28-day cycles and continued until POD or unacceptable toxicity. Compound A35 was given initially on a continuous daily dosing schedule. An intermittent dosing schedule on days 1-7 of a 28-day cycle was then evaluated after 2 cycles of daily dosing, or ≥3 cycles of daily dosing to reduce the risk of immune-related adverse events. For this analysis the intermittent schedule (IS) group is defined as patients who received Compound A35 alone or with rituximab daily for 2 cycles then switched to an intermittent schedule of 1 week per cycle, and the continuous schedule (CS) group is defined as patients who never switched to intermittent dosing or switched to intermittent dosing in cycle 4 or later cycles. Toxicity on CS is managed by a switch to IS. Progression of disease (POD) on IS is managed by a switch to CS."}, "[2]": {"assay": "Tumor exposure of Compound A35 (FIG. 3)", "format": "in vivo", "settings": "over a 4-hour and 24-hour period (FIG. 3)"}, "[3]": {"test_system": "patients with follicular lymphoma (FL)", "assay": "Phase 1b study: patients with adverse events of special interest (AESI)", "format": "in vivo, human", "procedure": "as §1"}, "murine B-cell tumors": {"test_system": "murine B-cell tumors", "assay": "Retention in murine B-cell tumors (FIG. 4)", "format": "in vivo", "settings": "compared to idelalisib (FIG. 4)"}, "[4]": {"test_system": "patients with follicular lymphoma (FL)", "assay": "Phase 1b study: patient disposition on continuous (CS) or intermittent (IS) schedule", "format": "in vivo, human", "procedure": "as §1"}, "[5]": {"settings": "All Grades, All (N = 40), single agent therapy"}, "[6]": {"settings": "All Grades, CS Group (N = 25), single agent therapy"}, "[7]": {"settings": "All Grades, CS Group (N = 31), A35 alone or with rituximab"}, "[8]": {"settings": "All Grades, IS Group (N = 15), single agent therapy"}, "[9]": {"settings": "All Grades, IS Group (N = 23), A35 alone or with rituximab"}, "[10]": {"settings": "Grade 3, CS Group (N = 31), A35 alone or with rituximab"}, "[11]": {"settings": "Grade 3, IS Group (N = 23), A35 alone or with rituximab"}, "[12]": {"settings": "Related Grade 3, All (N = 40), single agent therapy"}, "[13]": {"settings": "Related Grade 3, CS Group (N = 25), single agent therapy"}, "[14]": {"settings": "Related Grade 3, IS Group (N = 15), single agent therapy"}, "[15]": {"settings": "CS Group (N = 25), Compound A35 alone arm"}, "[16]": {"settings": "CS Group (N = 31), A35 alone or with rituximab"}, "[17]": {"settings": "FL patients, A35 alone or with rituximab"}, "[18]": {"settings": "IS Group (N = 15), Compound A35 alone arm"}, "[19]": {"settings": "IS Group (N = 23), A35 alone or with rituximab"}}, "note": "Marks after values point to notes of the source that are not given here."}
{"smiles": "CN1CCC(c2ccccc2CC(C)(C)Nc2nc(N3CCOCC3)nc(-n3c(C(F)F)nc4ccccc43)n2)CC1", "note": "[Compound A35]", "values": [{"measurement": "rate of response in POD24 patients", "setting": "[1]; A35 alone or in combination with a CD20 inhibitor, higher than expected with conventional FL therapy", "result": "very high rate of response"}, {"measurement": "morphologic/metabolic CR", "setting": "[1]; FL patients with follow-up disease assessment, Compound A35 alone", "result": 20, "unit": "%"}, {"measurement": "No. (%) of Subjects with a Response", "setting": "[1]; No POD24, Total (A35 alone and A35 + rituximab cohorts)", "result": "16 (67%) No. (%)"}, {"measurement": "No. (%) of Subjects with a Response", "setting": "[1]; No POD24 FL subjects evaluable for response", "result": "14 (64%) No. (%)"}, {"measurement": "No. (%) of Subjects with a Response", "setting": "[1]; POD24, Total (A35 alone and A35 + rituximab cohorts)", "result": "24 (92%) No. (%)"}, {"measurement": "No. (%) of Subjects with a Response", "setting": "[1]; POD24 FL subjects evaluable for response", "result": "16 (100%) No. (%)"}, {"measurement": "rate of durable responses", "setting": "[1]; R/R FL", "result": "high rate of durable responses"}, {"measurement": "POD24 subjects with response who had PD", "setting": "[1]; of 24 POD24 subjects who achieved response", "result": 6, "unit": "subjects"}, {"measurement": "tumor exposure", "setting": "[2]", "result": "preferential tumor exposure"}, {"measurement": "AESI: ALT/AST increased", "setting": "[3]; [5]", "result": "9 (22.5%)"}, {"measurement": "AESI: Diarrhea/colitis", "setting": "[3]; [5]", "result": "17 (42.5%)"}, {"measurement": "AESI: Mucositis", "setting": "[3]; [5]", "result": "6 (15.0%)"}, {"measurement": "AESI: Pneumonia/ Pneumonitis", "setting": "[3]; [5]", "result": "2 (5.0%)"}, {"measurement": "AESI: Rash, all types", "setting": "[3]; [5]", "result": "12 (30.0%)"}, {"measurement": "AESI: ALT/AST increased", "setting": "[3]; [6]", "result": "6 (24.0%)"}, {"measurement": "AESI: Diarrhea/colitis", "setting": "[3]; [6]", "result": "10 (40.0%)"}, {"measurement": "AESI: Mucositis", "setting": "[3]; [6]", "result": "6 (24.0%)"}, {"measurement": "AESI: Pneumonia/ Pneumonitis", "setting": "[3]; [6]", "result": "2 (8.0%)"}, {"measurement": "AESI: Rash, all types", "setting": "[3]; [6]", "result": "11 (44.0%)"}, {"measurement": "AESI: ALT/AST increased", "setting": "[3]; [7]", "result": "8 (25.8%)"}, {"measurement": "AESI: Diarrhea/colitis", "setting": "[3]; [7]", "result": "11 (35.5%)"}, {"measurement": "AESI: Mucositis", "setting": "[3]; [7]", "result": "6 (19.4%)"}, {"measurement": "AESI: Pneumonia", "setting": "[3]; [7]", "result": "2 (6.5%)"}, {"measurement": "AESI: Rash, all types", "setting": "[3]; [7]", "result": "11 (35.5%)"}, {"measurement": "AESI: ALT/AST increased", "setting": "[3]; [8]", "result": "3 (20.0%)"}, {"measurement": "AESI: Diarrhea/colitis", "setting": "[3]; [8]", "result": "7 (46.7%)"}, {"measurement": "AESI: Mucositis", "setting": "[3]; [8]", "result": 0, "unit": "%"}, {"measurement": "AESI: Pneumonia/ Pneumonitis", "setting": "[3]; [8]", "result": 0, "unit": "%"}, {"measurement": "AESI: Rash, all types", "setting": "[3]; [8]", "result": "1 (6.7%)"}, {"measurement": "AESI: ALT/AST increased", "setting": "[3]; [9]", "result": "7 (30.4%)"}, {"measurement": "AESI: Mucositis", "setting": "[3]; [9]", "result": "1 (4.3%)"}, {"measurement": "AESI: Pneumonia", "setting": "[3]; [9]", "result": 0, "unit": "%"}, {"measurement": "AESI: Rash, all types", "setting": "[3]; [9]", "result": "2 (8.7%)"}, {"measurement": "AESI: Diarrhea/colitis", "setting": "[3]; All Grades, IS Group (N = 23), A35 alone or with rituximab, excluded 1 subject with diarrhea after POD and 1 with one-day diarrhea", "result": "11 (47.8%)*"}, {"measurement": "AESI: ALT/AST increased", "setting": "[3]; [10]", "result": "3 (9.7%)"}, {"measurement": "AESI: Diarrhea/colitis", "setting": "[3]; [10]", "result": "5 (16.1%)"}, {"measurement": "AESI: Mucositis", "setting": "[3]; [10]", "result": "1 (3.2%)"}, {"measurement": "AESI: Pneumonia", "setting": "[3]; [10]", "result": "2 (6.5%)"}, {"measurement": "AESI: Rash, all types", "setting": "[3]; [10]", "result": "4 (12.9%)"}, {"measurement": "AESI: ALT/AST increased", "setting": "[3]; [11]", "result": "1 (4.3%)"}, {"measurement": "AESI: Diarrhea/colitis", "setting": "[3]; [11]", "result": "2 (8.7%)"}, {"measurement": "AESI: Mucositis", "setting": "[3]; [11]", "result": 0, "unit": "%"}, {"measurement": "AESI: Pneumonia", "setting": "[3]; [11]", "result": 0, "unit": "%"}, {"measurement": "AESI: Rash, all types", "setting": "[3]; [11]", "result": 0, "unit": "%"}, {"measurement": "Grade 3 immune-related adverse events", "setting": "[3]; IS group (N=23) compared to the CS group (N=31)", "result": "less common"}, {"measurement": "AESI: ALT/AST increased", "setting": "[3]; [12]", "result": "3 (7.5%)"}, {"measurement": "AESI: Diarrhea/colitis", "setting": "[3]; [12]", "result": "6 (15.0%)"}, {"measurement": "AESI: Mucositis", "setting": "[3]; [12]", "result": "1 (2.5%)"}, {"measurement": "AESI: Pneumonia/ Pneumonitis", "setting": "[3]; [12]", "result": "2 (5.0%)"}, {"measurement": "AESI: Rash, all types", "setting": "[3]; [12]", "result": "4 (10.0%)"}, {"measurement": "AESI: ALT/AST increased", "setting": "[3]; [13]", "result": "3 (12.0%)"}, {"measurement": "AESI: Diarrhea/colitis", "setting": "[3]; [13]", "result": "5 (20.0%)"}, {"measurement": "AESI: Mucositis", "setting": "[3]; [13]", "result": "1 (4.0%)"}, {"measurement": "AESI: Pneumonia/ Pneumonitis", "setting": "[3]; [13]", "result": "2 (8.0%)"}, {"measurement": "AESI: Rash, all types", "setting": "[3]; [13]", "result": "4 (16.0%)"}, {"measurement": "AESI: ALT/AST increased", "setting": "[3]; [14]", "result": 0, "unit": "%"}, {"measurement": "AESI: Diarrhea/colitis", "setting": "[3]; [14]", "result": "1 (6.7%)"}, {"measurement": "AESI: Mucositis", "setting": "[3]; [14]", "result": 0, "unit": "%"}, {"measurement": "AESI: Pneumonia/ Pneumonitis", "setting": "[3]; [14]", "result": 0, "unit": "%"}, {"measurement": "AESI: Rash, all types", "setting": "[3]; [14]", "result": 0, "unit": "%"}, {"measurement": "incidence of immune-related adverse events (irAEs)", "setting": "[3]; intermittent schedule (IS)", "result": "appears to reduce the incidence"}, {"measurement": "retention in murine B-cell tumors", "setting": "murine B-cell tumors", "result": "preferential retention"}, {"measurement": "Patient Disposition: Adverse event", "setting": "[4]; [15]", "result": "3 (12%)"}, {"measurement": "Patient Disposition: Progressive disease", "setting": "[4]; [15]", "result": "4 (16%)"}, {"measurement": "Patient Disposition: Adverse event", "setting": "[4]; [16]", "result": "3 (10%)"}, {"measurement": "Patient Disposition: Progressive disease", "setting": "[4]; [16]", "result": "4 (13%)"}, {"measurement": "patients discontinued: POD", "setting": "[4]; [17]", "result": 9, "unit": "patients"}, {"measurement": "patients discontinued: adverse events (AEs)", "setting": "[4]; [17]", "result": 4, "unit": "patients"}, {"measurement": "Patient Disposition: Adverse event", "setting": "[4]; [18]", "result": "1 (7%)"}, {"measurement": "Patient Disposition: Progressive disease", "setting": "[4]; [18]", "result": 0, "unit": "%"}, {"measurement": "Patient Disposition: Adverse event", "setting": "[4]; [19]", "result": "1 (4%)"}, {"measurement": "Patient Disposition: Progressive disease", "setting": "[4]; [19]", "result": "0 (0%)"}]}
